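Dose response: 5 concentrations. Exposure: 48 h. Format: 96-well plates. Endpoint: linear interpolation; highest concentration if not reached. TGI marks complete inhibition of growth.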
Tests used:
Experiment in all cases: growth of human tumour cells (NCI), 48 h
SW-620 colon = system: SW-620 colon
RPMI-8226 leukemia = system: RPMI-8226 leukemia
SF-539 CNS = system: SF-539 CNS
OVCAR-4 ovarian = system: OVCAR-4 ovarian
A549 NSCLC = system: A549 NSCLC
MDA-MB-231 breast = system: MDA-MB-231 breast
KM12 colon = system: KM12 colon
NCI-H23 lung = system: NCI-H23 lung
OVCAR-3 ovarian = system: OVCAR-3 ovarian
786-0 renal = system: 786-0 renal
A498 renal = system: A498 renal
UACC-62 melanoma = system: UACC-62 melanoma
HCC-2998 colon = system: HCC-2998 colon
SN12C renal = system: SN12C renal
NCI/ADR-RES ovarian = system: NCI/ADR-RES ovarian
HOP-92 NSCLC = system: HOP-92 NSCLC
PC-3 prostate = system: PC-3 prostate
SR leukemia = system: SR leukemia
K-562 leukemia = system: K-562 leukemia
OVCAR-8 ovarian = system: OVCAR-8 ovarian
M14 melanoma = system: M14 melanoma
SK-MEL-5 melanoma = system: SK-MEL-5 melanoma
MOLT-4 leukemia = system: MOLT-4 leukemia
MCF7 breast = system: MCF7 breast
NCI-H226 lung = system: NCI-H226 lung
MALME-3M melanoma = system: MALME-3M melanoma
T-47D breast = system: T-47D breast
ACHN renal = system: ACHN renal
SK-OV-3 ovarian = system: SK-OV-3 ovarian
MDA-MB-435 = system: MDA-MB-435
RXF 393 renal = system: RXF 393 renal
OVCAR-5 ovarian = system: OVCAR-5 ovarian
HCT-15 colon = system: HCT-15 colon
BT-549 breast = system: BT-549 breast
NCI-H522 lung = system: NCI-H522 lung
CCRF-CEM leukemia = system: CCRF-CEM leukemia
HCT-116 colon = system: HCT-116 colon
SNB-19 CNS = system: SNB-19 CNS
SF-268 CNS = system: SF-268 CNS
HT29 colon = system: HT29 colon
EKVX NSCLC = system: EKVX NSCLC
NCI-H460 lung = system: NCI-H460 lung
SK-MEL-28 melanoma = system: SK-MEL-28 melanoma
TK-10 renal = system: TK-10 renal
SK-MEL-2 melanoma = system: SK-MEL-2 melanoma
CAKI-1 renal = system: CAKI-1 renal
MDA-N = system: MDA-N
UACC-257 melanoma = system: UACC-257 melanoma
SNB-75 CNS = system: SNB-75 CNS
HS 578T breast = system: HS 578T breast
DU-145 prostate = system: DU-145 prostate
UO-31 renal = system: UO-31 renal
IGROV1 ovarian = system: IGROV1 ovarian
HL-60(TB) leukemia = system: HL-60(TB) leukemia
SF-295 CNS = system: SF-295 CNS
U251 CNS = system: U251 CNS
HOP-62 NSCLC = system: HOP-62 NSCLC
COLO 205 colon = system: COLO 205 colon
LOX IMVI melanoma = system: LOX IMVI melanoma

Measured: TGI

Cc1cc(C)c2c(c1)CC1(Cc3c(ccc(C)c3C)C1=O)C2=O (stereo not drawn)
not listed: HOP-62 NSCLC | COLO 205 colon | LOX IMVI melanoma
> 100 µM: all other assays above

O=C1OC(c2ccccc2)=N/C1=C\c1ccc(Cl)cc1
not listed: SF-539 CNS | MALME-3M melanoma
> 100 µM: all other assays above

Cc1ccc(NC(=O)c2cc(S(=O)(=O)Nc3n[nH]c(=O)n3-c3ccccc3)c(S)cc2Cl)cc1
not listed: ACHN renal | CCRF-CEM leukemia | SF-295 CNS | HOP-62 NSCLC
> 100 µM: all other assays above

Reference: PubChem BioAssay (NCI)
